In assay [1] the test system is P898012 sorghum immature embryos. Briefly: Phenolic compound production by infected, cultured sorghum immature embryos (visual exudates). It counts as cell-based. The note with it: infected and cultured immature zygotic embryos of sorghum (FIG. 3). The procedure: Transformation was carried out in 6 distinctive but sequential phases. Freshly isolated embryos of P898012 or GS3 were mixed together or separated into 1.5 mL of medium 700 either lacking or containing […] acetosyringone. The concentration of A. tumefaciens harbouring the vector PHP15303 (FIG. 5) in the suspension was adjusted to 0.857×10^9 cfu/mL [Optical Density (OD) approximately 0.6 at 550 nm]. The infection suspension was vortexed gently for 15 seconds, poured into 1 cm-diameter microplates and vacuumed for 5 minutes with gentle rocking for mixing. • 2. The Agrobacterium suspension was then aspirated and the embryos plated on co-cultivation medium 710B either lacking or containing […] acetosyringone for 3 days (co-cultivation) and cultured in the dark at 25° C. • 3. […]
Cultured immature zygotic embryos of the sorghum genotype P898012 produce phenolic compounds which can be visually identified as black/dark brown exudates within the proximity of the embryos on tissue culture medium (FIG. 2 (I) and FIG. 1 (J)). When these immature embryos are infected with A. tumefaciens, higher quantities of these phenolic compounds are produced, especially when the medium on which the embryos are cultured is not supplemented with the synthetic acetosyringone (contrast FIGS. 2 (A & B) vs. FIGS. 2 (D & E)).

The next assay has as its system lillies. The note with it: addition of acetosyringone; cited from earlier work.
Another assay deals with wheat. The following applies: 200 μM instead of the usual 100 μM; cited from earlier work.
For another assay, the system named is sorghum. The note with it: acetosyringone alone used to induce vir gene expression; cited from earlier work.

The values below come from patent US8143484B2, “Method for regulating agrobacterium-mediated transformation” (priority 2008, dated 2012).

With `COc1cc(C(C)=O)cc(OC)c1O` [acetosyringone, 4-acetyl-2,6-dimethoxyphenol], the “effect on production of phenolic compounds” value in assay [1] is “depresses the production of phenolic compounds”. The “effect on transformation efficiency” value in the assay on lillies is “does not have any effect on transformation efficiency”. In addition, the “T-DNA transfer and transformation efficiency” value in the assay on wheat is “higher levels of T-DNA transfer and transformation efficiency”. In addition, the Agrobacterium transformation efficiency result in the assay with sorghum is “very low”.
